Test results as given in ChEMBL document CHEMBL3616380, “Photocytotoxicity, cellular uptake and subcellular localization of amidinophenylporphyrins as potential photodynamic therapeutic agents: An in vitro cell study” (Bioorg Med Chem Lett, 2015).

Assays:
[1] = Dark cytotoxicity against human HK1 cells assessed as cell viability at 1 to 8 uM after 24 hrs by MTT reduction assay; assay type: cell-based; conditions: hk1, 24 h
[2] = Photocytotoxicity against human HK1 cells assessed as cell viability at 4 uM measured 24 hrs post 12 J/cm'2 irradiation by MTT reduction assay; assay type: functional; conditions: HK-1, light or radiation study, read-out: Activity
[3] = Cellular uptake in human HK1 cells assessed per 10^6 cells at 8 uM after 1 to 24 hrs by flow cytometry; assay type: ADME, cell-based; conditions: hk1, 8 µM
[4] = Drug uptake in mitochondria of human HK1 cells at 8 uM after 24 hrs by confocal microscopy analysis; assay type: ADME; conditions: hk1, 24 h
[5] = Drug uptake in lysosomes of human HK1 cells at 8 uM after 24 hrs by confocal microscopy analysis; assay type: ADME, cell-based, Lysosome; conditions: hk1, 24 h
[6] = Photocytotoxicity against human HK1 cells assessed as cell viability at 8 uM measured 24 hrs post 4 J/cm'2 irradiation by MTT reduction assay; assay type: functional; conditions: HK-1, light or radiation study, read-out: Activity

| SMILES | Activity [1] | viability at 4 µM [2] [%] | Drug uptake [3] | Drug uptake [4] | Drug uptake [5] | viability at 8 µM [6] [%] |
| --- | --- | --- | --- | --- | --- | --- |
| C[n+]1ccc(-c2c3nc(c(-c4cc[n+](C)cc4)c4ccc([nH]4)c(-c4cc[n+](C)cc4)c4ccc([nH]4)c(-c4cc[n+](C)cc4)c4nc2C=C4)C=C3)cc1 [TMPYP4] | Non-toxic | 58 | Active | Active | – | – |
| N=C(N)c1ccc(-c2c3nc(c(-c4ccc(C(=N)N)cc4)c4ccc([nH]4)c(-c4ccc(C(=N)N)cc4)c4nc(c(-c5ccc(OCCCOc6ccc(-c7c8nc(c(-c9ccccc9)c9ccc([nH]9)c(-c9ccccc9)c9nc(c(-c%10ccccc%10)c%10ccc7[nH]%10)C=C9)C=C8)cc6)cc5)c5ccc2[nH]5)C=C4)C=C3)cc1 | Non-toxic | 20 | Active | – | Active | – |
| N=C(N)c1ccc(-c2c3nc(c(-c4ccc(C(=N)N)cc4)c4ccc([nH]4)c(-c4ccc(C(=N)N)cc4)c4nc(c(-c5ccc(C(=N)N)cc5)c5ccc2[nH]5)C=C4)C=C3)cc1 | Non-toxic | 90 | Active | – | Active | 50 |
